The text below walks through data of patent US12492197B2, “3,5-disubstituted pyrazole compounds as kinase inhibitors and uses thereof” (IMPACT THERAPEUTICS (SHANGHAI), INC, priority 2019, dated 2025).

Experiment [1] concerns human colon cancer cell LoVo. Briefly: Proliferation of LoVo cells, MTT assay. In kind it is cell-based. Particulars: 96 h, 4 days treatment, read-out: IC50 (inhibition of proliferation of LoVo).
Experiment [2] relates to human breast cancer cell HCC1806. Briefly: Proliferation of HCC1806 cells, MTT assay. In kind it is cell-based. The settings on record: HCC1806, 72 h, 3 days treatment, read-out: IC50 (inhibition of proliferation of HCC1806). In general terms: Tetrazolium assays rely on reduction of a dye to a coloured formazan, in cell work by metabolically active cells.
The test system of experiment [3] is human pancreatic cancer cell SW1990. Description: Proliferation of SW1990 cells, MTT assay. In kind it is cell-based. Particulars: SW1990, 120 h, 5 days treatment, read-out: IC50 (inhibition of proliferation of SW1990). The protocol:
Newly revived SW1990 cells (purchased from Shanghai Fuheng Biology) were cultured and passaged for at least three generations before use. Cells were used at about 90% confluency for experiments. Cells were digested with trypsinase and centrifuged at 800 rpm for 5 minutes. The cell pellets were resuspended in fresh DMEM medium and cells were counted. Cells were seeded on 96-well cell culture plates at 5000 cells/well and incubated overnight at 37° C., 5% CO2. The stock solutions of the test substances (including the test compounds and the reference compound) were serially diluted to 8 concentrations with DMSO at a ratio of 1:3. 5 μL of each serially diluted solutions was added to 120 μL of medium (diluted by 25 times) and mixed by shaking. […] The cell culture plates were returned to incubator at 37° C. and 5% CO2 for 5 days. At the end of the treatment the cell viability was determined by MTT colorimetric assay. Cell culture medium in each well was replaced by 100 μL/well of serum-free fresh medium containing MTT (0.5 mg/mL), and the culture was continued for additional 4 hours. Medium was then discarded and 100 μL/well of DMSO was added.
Data was analyzed by GraphPad Prism 6.0. The inhibitory effects of compounds on cell proliferation were plotted based on cell viability vs. the logarithm of compound concentration. Cell viability %=(ODcompound−ODbackground)/(ODDMSO−ODbackground)×100.

The target of the next experiment is T1, CHK1 kinase (Homo sapiens, UniProt O14757).
T1 construct: purchased Promega V1941
T1 sequence (O14757 1-476): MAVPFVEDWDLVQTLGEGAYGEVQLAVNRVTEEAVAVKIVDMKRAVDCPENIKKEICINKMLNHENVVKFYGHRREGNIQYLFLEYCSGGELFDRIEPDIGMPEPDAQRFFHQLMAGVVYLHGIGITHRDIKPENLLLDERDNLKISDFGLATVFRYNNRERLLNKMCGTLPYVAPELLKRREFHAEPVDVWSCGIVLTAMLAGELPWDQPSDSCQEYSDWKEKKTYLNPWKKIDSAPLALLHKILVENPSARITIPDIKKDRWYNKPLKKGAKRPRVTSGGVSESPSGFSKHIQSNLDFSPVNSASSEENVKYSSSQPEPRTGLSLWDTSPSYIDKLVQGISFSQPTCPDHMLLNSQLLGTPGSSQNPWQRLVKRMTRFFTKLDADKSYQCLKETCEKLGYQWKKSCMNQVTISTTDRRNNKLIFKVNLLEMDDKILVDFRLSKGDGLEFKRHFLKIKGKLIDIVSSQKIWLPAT
Description: CHK1 kinase inhibition, ADP-Glo kinase assay. In kind it is biochemical. Particulars: ATP 10 μM, CHK1 1 ng/well; for pIC50: read-out: IC50 (inhibitory effect on CHK1 kinase activity); for inhibition at 0.01 µM: compound concentration 10 nM, read-out: Inh % (inhibitory effect on CHK1 kinase activity). For orientation: ADP-Glo first removes unused ATP, then detects ADP through luciferase.

pIC50: −log10 of the molar value.

Consider `COc1cccc(OC[C@@H]2CNCCO2)c1-c1cc(Nc2cnc(C#N)cn2)n[nH]1` [Example 1, (S)-5-((5-(2-methoxy-6-(morpholin-2-ylmethoxy)phenyl)-1H-pyrazol-3-yl)amino)pyrazine-2-carbonitrile], for which the pIC50 is 7.81 in experiment [1], 8.13 in experiment [2], 8.20 in experiment [3] and 9.08 on CHK1 kinase. Moreover, the inhibition at 0.01 µM on CHK1 kinase stood at 95%.

On to `COc1cc(F)cc(OC[C@@H]2CNCCO2)c1-c1cc(Nc2cnc(C#N)cn2)n[nH]1` [Example 14, (S)-5-((5-(4-fluoro-2-methoxy-6-(morpholin-2-ylmethoxy)phenyl)-1H-pyrazol-3-yl)amino)pyrazine-2-carbonitrile], for which the pIC50 in experiment [1] was 7.72; in experiment [2] it was 7.92; in experiment [3] it was 8.21; at CHK1 kinase it was 9.16. Further, the inhibition at 0.01 µM at CHK1 kinase was 94%.

For the compound `COc1cccc(OC[C@H]2CCNC2)c1-c1cc(Nc2cnc(C#N)cn2)n[nH]1` [Example 13, (S)-5-((5-(2-methoxy-6-(pyrrolidin-3-ylmethoxy)phenyl)-1H-pyrazol-3-yl)amino)pyrazine-2-carbonitrile], the pIC50 in experiment [2] is 8.68; in experiment [3], 8.72; on CHK1 kinase, 9.35.

For the compound `COc1cccc(OC[C@H]2CCCNC2)c1-c1cc(Nc2cnc(C#N)cn2)n[nH]1` [Example 9, (S)-5-((5-(2-methoxy-6-(piperidin-3-ylmethoxy)phenyl)-1H-pyrazol-3-yl)amino)pyrazine-2-carbonitrile], the pIC50 is 8.36 in experiment [1], 8.92 in experiment [2], 8.92 in experiment [3] and 9.01 on CHK1 kinase. The inhibition at 0.01 µM on CHK1 kinase turned out to be 92%.
